Laboratory results taken from patent US20070276034A1, “Compounds, compositions and methods for the treatment of synucleinopathies” (priority 2002, published 2007).
Read-outs that look alike come from different tables or passages of the source.

Assays:
Type in all cases: biochemical
IAPP fibrils [1] = target: T1, IAPP fibrils (Homo sapiens, UniProt P10997); assay: Thioflavin T fluorometry - disruption of type 2 diabetes IAPP fibrils; details: 25 μM pre-fibrillized IAPP, 37° C., 3 days, read-out: % Inhibition IAPP (result ± S.D.)
T1 construct: purchased Bachem Inc
T1 sequence (P10997 34-70 limits assumed): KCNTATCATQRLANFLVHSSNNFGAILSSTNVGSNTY
Protocol: (§1) In this assay Thioflavin T binds specifically to fibrillar amyloid, and this binding produces a fluorescence enhancement at 485 nm that is directly proportional to the amount of IAPP fibrils present. The higher the fluorescence, the greater the amount of IAPP fibrils present (Naki et al, Lab. Invest. 65:104-110, 1991; Levine III, Protein Sci. 2:404-410, 1993; Amyloid: Int. J. Exp. Clin. Invest. 2:1-6, 1995).
(§2) In this study, 25 μM of pre-fibrillized IAPP (Bachem Inc) was incubated at 37° C. for 3 days either alone, or in the presence of one of the compounds or EDTA (at IAPP:test compound weight ratios of 1:1, 1:0.1, 1:0.01 or 1:0.001). Following 3-days of co-incubation, 50 μl of each incubation mixture was transferred into a 96-well microtiter plate containing 150 μl of distilled water and 50 μl of a Thioflavin T solution (i.e. 500 mM Thioflavin T in 250 mM phosphate buffer, pH 6.8). The fluorescence was read at 485 nm (444 nm excitation wavelength) using an ELISA plate fluorometer after subtraction with buffer alone or compound alone, as blank.

Aβ 1-42 fibrils = target: T2, Aβ 1-42 fibrils (Homo sapiens, UniProt P05067); assay: Thioflavin T fluorometry - disruption of pre-formed Aβ 1-42 Alzheimer's fibrils; details: 25 μM pre-fibrillized Aβ 1-42, 37° C., 3 days, read-out: % Inhibition Aβ (result ± S.D.)
T2 construct: purchased Bachem Inc
T2 sequence (P05067 672-713): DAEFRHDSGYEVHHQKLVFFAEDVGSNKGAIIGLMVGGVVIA
Text: In one study, Thioflavin T fluorometry was used to determine the effects of the compounds, and of EDTA (as a negative control). In this assay Thioflavin T binds specifically to fibrillar amyloid, and this binding produces a fluorescence enhancement at 485 nm that is directly proportional to the amount of amyloid fibrils formed. The higher the fluorescence, the greater the amount of amyloid fibrils formed (Naki et al., Lab. Invest. 65:104-110, 1991; Levine III, Protein Sci. 2:404-410, 1993; Amyloid: Int. J. Exp. Clin. Invest. 2:1-6, 1995).
as §2, with “Aβ 1-42” for “IAPP”, “Aβ:test” for “IAPP:test”

IAPP fibrils [2] = target: T1, IAPP fibrils; assay: Congo red binding assay with IAPP fibrils; details: 3-day incubation
Protocol: In the Congo red binding assay the ability of a given test compound to alter amyloid (in this case, IAPP) binding to Congo red is quantified. In this assay, IAPP and test compounds were incubated for 3 days and then vacuum filtered through a 0.2 μm filter. The amount of IAPP retained in the filter was then quantitated following staining of the filter with Congo red. After appropriate washing of the filter, any lowering of the Congo red color on the filter in the presence of the test compound (compared to the Congo red staining of the amyloid protein in the absence of the test compound) was indicative of the test compound's ability to diminish/alter the amount of aggregated and congophilic IAPP.
In the study, the ability of IAPP fibrils to bind Congo red in the absence or presence of increasing amounts of the compounds or EDTA (at IAPP:test compound weight ratios of 1:1, 1:0.1, 1:0.01 or 1:0.001) was determined.

NAC fibrils = target: T3, NAC fibrils (Homo sapiens, UniProt P37840); assay: Thioflavin T fluorometry - disruption of Parkinson's disease NAC fibrils; details: 3 days; for inhibition: 25 μM pre-fibrillized NAC, 37° C., read-out: % Inhibition NAC (result ± S.D.); for disruption/disassembly of pre-formed NAC fibrils (in words): all concentrations tested (ratios 1:1 to 1:0.001)
T3 construct: NAC is a 35-amino acid fragment of α-synuclein; purchased Bachem Inc
Protocol: as §1, with “assay,” for “assay”, “NAC fibrils,” for “fibrillar amyloid,”, “NAC” for “IAPP”
In this study, 25 μM of pre-fibrillized NAC (Bachem Inc) was incubated at 37° C. for 3 days either alone or in the presence of dihydroxy synthetic analog compounds #1, 3, 23, 26, 52, 63, 66, 67, or EDTA (at NAC:test compound weight ratios of 1:1, 1:0.1, 1:0.01 or 1:0.001). Following 3-days of co-incubation, 50 βl of each incubation mixture was transferred into a 96-well microtiter plate containing 150 μl of distilled water and 50 μl of a Thioflavin T solution (i.e. 500 mM Thioflavin T in 250 mM phosphate buffer, pH 6.8). The fluorescence was read at 485 nm (444 nm excitation wavelength) using an ELISA plate fluorometer after subtraction with buffer alone or compound alone, as blank.

monomeric Aβ 1-42 = target: T4, monomeric Aβ 1-42 (Homo sapiens, UniProt P05067); assay: SDS-PAGE/Western blot of Aβ 1-42 after incubation with compounds; details: 25 μM pre-fibrillized Aβ 1-42, 37° C., 3 days, 0.2 μm filtrate, antibody 6E10
T4 construct: purchased Bachem Inc
T4 sequence (P05067 672-713): as above
Protocol: In this latter study, triplicate samples of pre-fibrillized Aβ 1-42 (25 μM) was incubated at 37° C. for 3 days, alone or in the presence of the compounds or EDTA. Five micrograms of each sample was then filtered through a 0.2 μm filter. Protein recovered from the filtrate was then loaded, and ran on a 10-20% Tris-Tricine SDS-PAGE, blotted to nitrocellulose and detected using an Aβ-antibody (clone 6E10; Senetek).

[3] = IAPP:test compound wt/wt ratio 1:0.001
[4] = IAPP:test compound wt/wt ratio 1:0.01
[5] = IAPP:test compound wt/wt ratio 1:0.1
[6] = IAPP:test compound wt/wt ratio 1:1
[7] = Aβ:test compound wt/wt ratio 1:0.001
[8] = Aβ:test compound wt/wt ratio 1:0.01
[9] = Aβ:test compound wt/wt ratio 1:0.1
[10] = Aβ:test compound wt/wt ratio 1:1
[11] = NAC:test compound wt/wt ratio 1:0.001
[12] = NAC:test compound wt/wt ratio 1:0.01
[13] = NAC:test compound wt/wt ratio 1:0.1
[14] = NAC:test compound wt/wt ratio 1:1

Row | Compound | inhibition (IAPP fibrils [1]; [3]) [%] | inhibition (IAPP fibrils [1]; [4]) [%] | inhibition (IAPP fibrils [1]; [5]) [%] | inhibition (IAPP fibrils [1]; [6]) [%] | inhibition (Aβ 1-42 fibrils; [7]) [%] | inhibition (Aβ 1-42 fibrils; [8]) [%] | inhibition (Aβ 1-42 fibrils; [9]) [%] | inhibition (Aβ 1-42 fibrils; [10]) [%] | % Inhibition IAPP (result ± S.D.), Congo red binding (IAPP fibrils [2]; [3]) [%] | % Inhibition IAPP (result ± S.D.), Congo red binding (IAPP fibrils [2]; [4]) [%] | % Inhibition IAPP (result ± S.D.), Congo red binding (IAPP fibrils [2]; [5]) [%] | % Inhibition IAPP (result ± S.D.), Congo red binding (IAPP fibrils [2]; [6]) [%] | inhibition (NAC fibrils; [11]) [%] | inhibition (NAC fibrils; [12]) [%] | inhibition (NAC fibrils; [13]) [%] | inhibition (NAC fibrils; [14]) [%] | disruption/disassembly of pre-formed NAC fibrils (in words) (NAC fibrils) | detection of Aβ 1-42 monomers (~4 kilodalton band) on Western blot (monomeric Aβ 1-42)
1 | Cc1nc(-c2ccc(O)c(O)c2)cc(-c2ccc(O)c(O)c2)c1C#N [Compound 8, 4,6-bis(3,4-dihydroxyphenyl)-3-cyano-2-methylpyridine] | 11.4 ± 12.8 | 29.6 ± 5.97 | 67.8 ± 1.74 | 72.8 ± 1.77 | 4.9 ± 2.27 | 24.7 ± 3.51 | 65.5 ± 0.17 | 70.8 ± 2.57 | 0.0 ± 6.46 | 7.2 ± 2.27 | 0.0 ± 2.94 | 0.0 ± 2.84 | – | – | – | – | – | –
2 | Oc1ccc(CN2CCN(Cc3ccc(O)c(O)c3)CC2)cc1O [Compound 9, 1,4-bis(3,4-dihydroxybenzyl)piperazine] | – | – | – | – | 10.6 ± 0.93 | 2 ± 10.8 | 34.9 ± 1.69 | 95.1 ± 0.13 | – | – | – | – | – | – | – | – | – | –
3 | O=C(NCc1ccc(O)c(O)c1)c1ccc(O)c(O)c1 [Compound 52, 3,4-dihydroxybenzoic acid 3,4-dihydroxybenzylamide] | 16 ± 8.42 | 49.2 ± 4.47 | 86.9 ± 3.09 | 97.9 ± 0.19 | 0 | 12.1 ± 0.78 | 53.6 ± 2.42 | 93.7 ± 0.41 | 10.2 ± 0.52 | 11.0 ± 3.27 | 11.5 ± 1.21 | 31.3 ± 0.27 | 13.8 ± 10.5 | 79.6 ± 6.43 | 89.2 ± 1.49 | 99.7 ± 1.93 | dose-dependent disruption/disassembly | –
4 | O=C(CCc1ccc(O)c(O)c1)Nc1ccc(O)c(O)c1 [Compound 57, 3-(3,4-dihydroxyphenyl)propionic acid 3,4-dihydroxyanilide] | 1.9 ± 5.24 | 37.3 ± 0.78 | 73.2 ± 1.19 | 94.1 ± 0.46 | 17.7 ± 7.43 | 19 ± 6.33 | 60.2 ± 3.12 | 88.4 ± 2.73 | 4.5 ± 0.64 | 8.5 ± 3.19 | 8.9 ± 3.90 | 15.7 ± 3.77 | – | – | – | – | – | –
5 | O=C(CCc1ccc(O)c(O)c1)NCc1ccc(O)c(O)c1 [Compound 58, 3-(3,4-dihydroxyphenyl)propionic acid 3,4-dihydroxybenzylamide] | 8.9 ± 6.87 | 48.8 ± 2.05 | 87.6 ± 1.16 | 98.1 ± 1.04 | 20.5 ± 6.27 | 33.2 ± 5.16 | 76 ± 2.57 | 94.8 ± 1.67 | 0.0 ± 1.93 | 4.6 ± 2.35 | 0.7 ± 6.21 | 24.5 ± 0.57 | – | – | – | – | – | not detected
6 | O=C(CCC(=O)Nc1ccc(O)c(O)c1)Nc1ccc(O)c(O)c1 [Compound 66, succinic acid bis(3,4-dihydroxyanilide)] | 11.1 ± 5.28 | 47.6 ± 8.16 | 94 ± 2.88 | 98.5 ± 0.06 | 27.1 ± 3.51 | 42 ± 2.36 | 78.3 ± 4.17 | 100 ± 0.68 | 4.8 ± 1.86 | 5.7 ± 4.23 | 15.7 ± 2.53 | 41.4 ± 3.84 | 30.5 ± 9.55 | 43.4 ± 3.45 | 82.5 ± 5.37 | 98.9 ± 0.65 | dose-dependent disruption/disassembly | not detected
7 | Oc1ccc(CNCc2ccc(O)c(O)c2)cc1O [Compound 73, bis(3,4-dihydroxybenzyl)amine] | – | – | – | – | 0 | 28.7 ± 10.3 | 70.9 ± 3.04 | 99.4 ± 0.42 | – | – | – | – | – | – | – | – | – | –
8 | Oc1ccc(CN(Cc2ccc(O)c(O)c2)Cc2ccc(O)c(O)c2)cc1O [Compound 75, tris(3,4-dihydroxybenzyl)amine] | 6 ± 6.46 | 43.9 ± 5.34 | 90 ± 0.27 | 100 ± 0.35 | 17 ± 4.2 | 31.6 ± 4.74 | 84.4 ± 0.94 | 99 ± 0.63 | 2.9 ± 0.69 | 11.3 ± 2.24 | 7.4 ± 0.70 | 49.0 ± 1.17 | – | – | – | – | – | not detected
